The source of these data is article PMC9751883, “Discovery of new potent lysine specific histone demythelase-1 inhibitors (LSD-1) using structure based and ligand based molecular modelling and machine learning” (RSC Advances, 2022).

The IC50 is the concentration at which inhibition is half-maximal. The Ki is a dissociation constant, usually derived from enzyme kinetics or from competition with a known ligand.

Molecules are shown by their SMILES.

In one test the test system is neuroblastoma SH-SY5Y cells. Description: MTT cell viability assay on SH-SY5Y cells. As to conditions: 72 h, 50 μM, without verapamil. In kind it is cell-based. As to the method: The anticancer effects of captured hits were evaluated against SH-SY5Y (Neuroblastoma, CRL-2266), Panc-1 (pancreatic carcinoma, CRL-1469) and U-87 MG (glioblastoma, HTB-14) cells. Details about growth conditions, cell harvesting and counting are available in ESI Sections SM12–SM14. ^† The cancer killing profiles of tested compounds were evaluated colorimetrically using the Cell Titer Non-Radioactive Cell Proliferation Assay Kit® (Promega, USA) based on the reduction of a yellow tetrazole, 3-(4,5-Dimethylthiazol-2-yl)-2, 5-diphenyl tetrazolium bromide (MTT), to a purple formazan, a process that takes place in the mitochondria of viable cells (details are in ESI Sections SM12–SM14 ^†).[98,99]
As SH-SY5Y cells highly express ATP binding cassette subfamily B member 1 (ABCB1, MDR1, normalized expression, NX: 36.8%),[100] cell resistance were reversed using verapamil (10 μM), which was added with each hit, and incubated with cells for 72 hours for subsequent MTT viability assay.[101,102] Finally, MTT cell proliferation assay results were analysed using GraphPad Prism 8.0 (GraphPad Software, Inc). […] Measurements were repeated in triplicates.
• MTT Cell Proliferation Assay
Inhibitory effect of the hits on SH-SY5Y cells were evaluated by a colorimetric method of CellTiter Non-Radioactive Cell Proliferation Assay Kit® (Promega, USA), based on the reduction of a yellow tetrazole, 3-(4,5-Dimethylthiazol-2-yl)-2, 5-diphenyl tetrazolium bromide (MTT), to a purple formazan, a process that take place in the mitochondria of viable cells.
Briefly, the cells were seeded onto 96-well plates (Greiner, Germany) at a concentration of 2×10^4 cells/well and incubated for 24 hours through which cells are attached to the walls of the wells.
Subsequently, hits under concern were screened on 50 µM and 10 µM concentrations (100 μL/ well). Each concentration was added in triplicates, and every plate contained a control of cells in plain medium. The cells were then incubated at 37 °C for 72 hours. After incubation, the media were aspirated from the wells and replaced by fresh media (100 μL/ well), and 15 µl MTT dye solution. The plates were incubated at 37 °C for four hours, and then 50 μL of solublization/stop solution was added to each well. Optical density (OD) at 560 nm wavelength was recorded one hour later using a 96-well plate reader (GloMax, Promega).
• Reversal of SH-SY5Y resistance by verapamil
As SH-SY5Y cells are highly expressing ATP binding cassette subfamily B member 1 (ABCB1, MDR1) (Normalized expression, NX: 36.8%) 100, cell resistance were reversed using 10 µM concentration of verapamil added with each hit and incubated with cells for 72 hours for subsequent MTT viability assay 101,102.
(In general: Tetrazolium assays rely on reduction of a dye to a coloured formazan, in cell work by metabolically active cells.)
As to `N[C@@H]1C[C@H]1c1ccccc1` (racemic) [Tranylcypromine, reference compound], the “Experimental % inhibition Without verapamil At 50 μM” value is recorded as 27.83%. On the same count and under the same terms, as for `N=C(N)c1ccc(OCCCCCCOc2ccc(C(=N)N)cc2)cc1` [Hit 288], the figure is 88.50%; as for `CC1(C)N=C(N)N=C(N)N1c1ccc(OCC(=O)Nc2cccc(S(=O)(=O)F)c2)c(Cl)c1` [Hit 289], 12.67%; as for `CC1(C)N=C(N)N=C(N)N1c1ccc(CNC(=O)Nc2ccc(S(=O)(=O)F)cc2)cc1` [Hit 290], 46.79%. Same read-out and setting: the value for `CC1(C)N=C(N)N=C(N)N1c1ccc(OCCNC(=O)Nc2ccc(S(=O)(=O)F)cc2)c(Cl)c1` [Hit 291] was 49.67%; that for `CC1(C)N=C(N)N=C(N)N1c1ccc(OCC(=O)Nc2ccc(S(=O)(=O)F)cc2Cl)c(Cl)c1` [Hit 292] was 27.42%. For `CCN(CC)CCOC(=O)c1ccc(NC(=O)OCC(C)OC(=O)Nc2ccc(C(=O)OCCN(CC)CC)cc2)cc1` (stereo not shown) [Hit 293], the “Experimental % inhibition Without verapamil At 50 μM” value was 26.82%. Consider `CC1(C)N=C(N)N=C(N)N1c1ccc(OCC(=O)Nc2ccc(S(=O)(=O)F)cc2)c(Cl)c1` [Hit 294], for which the “Experimental % inhibition Without verapamil At 50 μM” value was 28.17%.

As to `Cc1ccc(NC(=O)CCc2ccc(N3C(N)=NC(N)=NC3(C)C)cc2Cl)cc1S(=O)(=O)F` [Hit 295], the “Experimental % inhibition Without verapamil At 50 μM” value stood at 47.38%.

Turning to `Cc1cc(NC(=O)CCc2ccc(N3C(N)=NC(N)=NC3(C)C)cc2)ccc1S(=O)(=O)O` [Hit 296], the “Experimental % inhibition Without verapamil At 50 μM” value stood at 36.04%. The same measure, in the same setting: as for `CC1(C)N=C(N)N=C(N)N1c1ccc(OCc2ccc(C(=O)Nc3cccc(S(=O)(=O)F)c3)cc2)c(Cl)c1` [Hit 297], the figure is 30.01%. Regarding `Cc1ccc([C@@H](Cc2ccc(N3C(N)=NC(N)=NC3(C)C)cc2)C(=O)Nc2ccc(S(=O)(=O)F)cc2)cc1` [Hit 299], the “Experimental % inhibition Without verapamil At 50 μM” value is 43.36%.

The same test, now with this note: in presence of verapamil (10 μM), read-out: In vitro IC50.
Turning to `O=C(NCCCCCCCCCCNC(=O)Nc1cccc(C2=NCC(O)CN2)c1)Nc1cccc(C2=NCC(O)CN2)c1` (stereo not shown) [Hit 286], the concentration for half-maximal inhibition (IC50) worked out at 7.62 ± 0.97 µM. As to `N=C(N)c1ccc(OCCCCCCOc2ccc(C(=N)N)cc2)cc1` [Hit 288], the 50% inhibitory concentration (IC50) was determined as 0.24 ± 0.03 µM.

The target of the next test is T1, LSD-1 (Homo sapiens, UniProt O60341).
T1 construct: purchased Cayman Chemical-USA 700120
Experiment: not given
The following applies: Table SM1; cited from earlier work.
As for `c1ccc(-c2cc(OCC3CCNCC3)cnc2-c2ccccc2)cc1` [Cpd 250], the Ki was 50 µM. For the compound `C#Cc1ccc(-c2cc(OCC3CCNCC3)cnc2-c2ccc(C)cc2)cc1` [Cpd 259], the Ki is 50 µM.

For the compound `Cc1ccc(-c2ncc(OCC3CCNCC3)cc2-c2ccc(C(=O)O)cc2)cc1` [Cpd 260], the Ki was 50 µM. On to `Cc1ccc(-c2ncc(OCC3CCNCC3)cc2-c2ccc(CO)cc2)cc1` [Cpd 261], for which the inhibitory constant (Ki) is 50 µM.

As for `Cc1ccc(-c2ncc(OCC3CCNCC3)cc2-c2ccc(C(=O)N3CCCCC3)cc2)cc1` [Cpd 262], the Ki was 50 µM. Consider `Cc1ccc(-c2ncc(OCC3CCNCC3)cc2-c2ccc(C(=O)N3CCOCC3)cc2)cc1` [Cpd 263], for which the inhibitory constant (Ki) was 50 µM.

As for `Cc1ccc(-c2ncc(OCC3CCNCC3)cc2-c2ccc(C(=O)N3CCNCC3)cc2)cc1` [Cpd 264], the Ki was 50 µM.

The same test, now with this note: Table SM1; read-out: IC50; cited from earlier work.
Consider `CC(=NNC(=O)c1cccc(S(=O)(=O)N2CCOCC2)c1)c1cccc2ccccc12` [Cpd 272], for which the IC50 is 10 µM. Take `CC(=NNC(=O)c1cccc(S(=O)(=O)N2CCOCC2)c1)c1cc(Cl)ccc1O` [Cpd 273]: the 50% inhibitory concentration (IC50) is 0.013 µM. On to `CC(=NNC(=O)c1cccc(S(=O)(=O)N2CCOCC2)c1)c1ccnc(Cl)c1` [Cpd 274], for which the half-inhibitory concentration (IC50) was 3 µM. `CC(=NNC(=O)c1cccc(S(=O)(=O)N2CCOCC2)c1)c1cccnc1` [Cpd 275]: the concentration for half-maximal inhibition (IC50) was 3 µM.

On to `C#CCNCCCCC(NC(=O)c1ccccc1)C(=O)OC(C)(C)C` (stereo not shown) [Cpd 277], for which the concentration for half-maximal inhibition (IC50) was 144 µM. Take `CC(=O)c1csc(NC(=O)c2ccccc2)n1` [Cpd 280]: the 50% inhibitory concentration (IC50) is 188 µM.

On to `CC(=O)c1csc(NC(=O)Nc2ccccc2)n1` [Cpd 281], for which the concentration for half-maximal inhibition (IC50) is 188 µM.
